Activity calls are given as the source filed them.
Experiments:
CAAX prenyl protease 1 = CAAX prenyl protease 1 (Saccharomyces cerevisiae S288c, UniProt P47154); assay: Ste24 protease inhibitors, dose response, biochemical, S. cerevisiae, plate reader, cherry-pick (AID 488815)
CAAX prenyl protease 2 = molecular target: T1, CAAX prenyl protease 2 (Saccharomyces cerevisiae S288c, UniProt Q03530); type: biochemical
T1 sequence (Q03530 whole entry): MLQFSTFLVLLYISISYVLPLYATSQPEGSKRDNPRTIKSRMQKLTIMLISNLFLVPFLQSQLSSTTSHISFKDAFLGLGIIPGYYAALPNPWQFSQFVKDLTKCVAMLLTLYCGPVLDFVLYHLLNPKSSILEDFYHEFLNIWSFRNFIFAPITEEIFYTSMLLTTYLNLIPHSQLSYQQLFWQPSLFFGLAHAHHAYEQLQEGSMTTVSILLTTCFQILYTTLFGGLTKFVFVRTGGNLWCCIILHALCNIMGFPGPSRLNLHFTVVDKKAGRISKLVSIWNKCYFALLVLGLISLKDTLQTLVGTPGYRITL

[1] = molecular target: Intestinal-type alkaline phosphatase (Mus musculus, UniProt P24822); assay: mouse intestinal alkaline phosphatase activators, dose response, biochemical, luminescence, uHTS hits (AID 488783); type: functional
[2] = molecular target: T2, Alkaline phosphatase, tissue-nonspecific isozyme (Homo sapiens, UniProt P05186); assay: TNAP enzyme activators, dose response, selectivity assay for mouse IAP activator project, biochemical, TNAP isozyme, mouse IAP uHTS hits (AID 488880); type: functional
T2 sequence (P05186 whole entry): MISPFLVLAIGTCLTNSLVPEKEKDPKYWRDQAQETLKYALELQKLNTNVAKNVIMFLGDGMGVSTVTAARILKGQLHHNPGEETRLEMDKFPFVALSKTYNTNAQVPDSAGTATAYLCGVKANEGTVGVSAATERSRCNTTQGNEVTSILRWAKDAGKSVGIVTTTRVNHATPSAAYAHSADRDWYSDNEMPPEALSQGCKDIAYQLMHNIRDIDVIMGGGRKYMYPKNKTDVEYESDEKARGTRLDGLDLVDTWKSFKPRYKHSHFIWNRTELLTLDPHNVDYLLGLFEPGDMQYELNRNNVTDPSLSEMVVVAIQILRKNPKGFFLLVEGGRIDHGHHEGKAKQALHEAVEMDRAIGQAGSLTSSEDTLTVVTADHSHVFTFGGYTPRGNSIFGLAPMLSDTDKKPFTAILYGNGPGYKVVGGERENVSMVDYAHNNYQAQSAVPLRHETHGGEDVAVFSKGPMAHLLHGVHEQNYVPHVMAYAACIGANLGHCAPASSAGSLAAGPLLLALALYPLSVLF

[3] = molecular target: Intestinal-type alkaline phosphatase (Homo sapiens, UniProt P09923); assay: activation of human intestinal alkaline phosphatase – biochemical, dose response (AID 488873); type: functional
[4] = Counterscreen for AddAB inhibitors: absorbance-based bacterial cell-based high throughput dose response assay for inhibitors of bacterial viability. [Related pubchem assays (depositor defined):AID435030, AID449728, AID449731, AID488942, AID488955, AID488956]; type: functional
INS1 = assay: beta cell apoptosis inhibitors, cytokine rescue, dose response, luminescence, retest (AID 449756); type: functional, cell-based; conditions: Rattus norvegicus, INS1;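 note: cell death triggered by IL-1 beta plus TNF-alpha plus IFN-gamma mixture; protective hits raise ATP signal compared with cytokine alone wells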
Exodeoxyribonuclease V = Exodeoxyribonuclease V (Escherichia coli (strain K12), UniProt P04993+P07648+P08394); assay: E. coli RecBCD inhibitors, dose response, counter-screen for AddAB inhibitor project, absorbance, V66 E. coli, mutant T4 phage (AID 492957); type: functional, cell-based, Escherichia coli str. K-12 substr. MG1655
Nonstructural protein 1 = Nonstructural protein 1 (Influenza A virus, UniProt Q194T2); type: functional, Influenza A virus (A/California/07/2009(H1N1))
Cannabinoid receptor 2 [5] = molecular target: T3, Cannabinoid receptor 2 (Homo sapiens, UniProt P34972); assay: SAR analysis of antagonists of the Cannabinoid Receptor 2 using an Image-Based Assay - Set 3. [Related pubchem assays (depositor defined):AID2013, AID2026]; type: functional
[6] = molecular target: G-protein coupled receptor 55 (Homo sapiens, UniProt Q9Y2T6); assay: SAR Analysis of Selective Antagonists of GPR55 using an Image-Based Assay - Set 4. [Related pubchem assays (depositor defined):AID2013, AID2026]; type: functional;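 note: antagonism of response to 5 µM lysophosphatidylinositol agonist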
Cannabinoid receptor 1 [7] = molecular target: T4, Cannabinoid receptor 1 (Homo sapiens, UniProt P21554); assay: SAR analysis of antagonists of the Cannabinoid Receptor 1 using an Image-Based Assay - Set 4. [Related pubchem assays (depositor defined):AID2013, AID2026]; type: functional
Cannabinoid receptor 2 [8] = molecular target: T3, Cannabinoid receptor 2; assay: SAR analysis of agonists of the Cannabinoid Receptor 2 using an Image-Based Assay - Set 3. [Related pubchem assays (depositor defined):AID2013, AID2026]; type: functional
Cannabinoid receptor 1 [9] = molecular target: T4, Cannabinoid receptor 1; assay: SAR analysis of agonists of the Cannabinoid Receptor 1 using an Image-Based Assay - Set 4. [Related pubchem assays (depositor defined):AID2013, AID2026]; type: functional
[10] = molecular target: T5, G-protein coupled receptor 35 (Homo sapiens, UniProt Q9HC97); assay: SAR analysis of Antagonists of the GPR35 Receptor using an Image-Based Assay - Set 6. [Related pubchem assays (depositor defined):AID2013, AID2026]; type: functional
[11] = molecular target: T5, G-protein coupled receptor 35; assay: SAR analysis of Agonists of the GPR35 Receptor using an Image-Based Assay - Set 4. [Related pubchem assays (depositor defined):AID2013, AID2026]; type: functional

T4 sequence (P21554 whole entry): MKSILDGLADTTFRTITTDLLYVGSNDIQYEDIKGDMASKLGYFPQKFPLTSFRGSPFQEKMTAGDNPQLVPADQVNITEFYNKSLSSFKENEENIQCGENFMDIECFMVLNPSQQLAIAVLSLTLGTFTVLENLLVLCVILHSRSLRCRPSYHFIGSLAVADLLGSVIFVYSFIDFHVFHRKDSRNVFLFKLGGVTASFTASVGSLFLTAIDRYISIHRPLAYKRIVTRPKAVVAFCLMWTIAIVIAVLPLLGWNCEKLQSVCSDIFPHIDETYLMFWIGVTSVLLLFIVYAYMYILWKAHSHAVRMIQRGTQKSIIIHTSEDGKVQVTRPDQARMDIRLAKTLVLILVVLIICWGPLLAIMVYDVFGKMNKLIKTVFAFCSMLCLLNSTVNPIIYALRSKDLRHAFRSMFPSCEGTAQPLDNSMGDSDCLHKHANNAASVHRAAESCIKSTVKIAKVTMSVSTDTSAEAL
T3 sequence (P34972 whole entry): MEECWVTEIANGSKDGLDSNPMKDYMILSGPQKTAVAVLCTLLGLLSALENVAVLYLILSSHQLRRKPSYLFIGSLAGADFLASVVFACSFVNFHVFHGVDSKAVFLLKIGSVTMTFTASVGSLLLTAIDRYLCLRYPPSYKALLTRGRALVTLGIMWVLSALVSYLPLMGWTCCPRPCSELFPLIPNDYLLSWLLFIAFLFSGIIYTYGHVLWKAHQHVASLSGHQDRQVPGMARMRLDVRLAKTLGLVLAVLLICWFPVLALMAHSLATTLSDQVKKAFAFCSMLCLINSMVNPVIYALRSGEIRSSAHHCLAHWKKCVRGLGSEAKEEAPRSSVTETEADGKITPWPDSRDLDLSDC
T5 sequence (Q9HC97 whole entry): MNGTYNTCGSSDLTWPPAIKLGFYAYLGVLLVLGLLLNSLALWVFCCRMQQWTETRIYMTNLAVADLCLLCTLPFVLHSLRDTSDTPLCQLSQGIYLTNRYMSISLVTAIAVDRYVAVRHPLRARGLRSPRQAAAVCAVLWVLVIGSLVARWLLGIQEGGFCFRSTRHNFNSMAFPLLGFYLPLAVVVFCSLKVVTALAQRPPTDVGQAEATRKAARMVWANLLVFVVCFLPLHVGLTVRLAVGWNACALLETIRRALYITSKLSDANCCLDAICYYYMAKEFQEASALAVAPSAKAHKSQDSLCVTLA
Chain of Exodeoxyribonuclease V (P04993 whole entry): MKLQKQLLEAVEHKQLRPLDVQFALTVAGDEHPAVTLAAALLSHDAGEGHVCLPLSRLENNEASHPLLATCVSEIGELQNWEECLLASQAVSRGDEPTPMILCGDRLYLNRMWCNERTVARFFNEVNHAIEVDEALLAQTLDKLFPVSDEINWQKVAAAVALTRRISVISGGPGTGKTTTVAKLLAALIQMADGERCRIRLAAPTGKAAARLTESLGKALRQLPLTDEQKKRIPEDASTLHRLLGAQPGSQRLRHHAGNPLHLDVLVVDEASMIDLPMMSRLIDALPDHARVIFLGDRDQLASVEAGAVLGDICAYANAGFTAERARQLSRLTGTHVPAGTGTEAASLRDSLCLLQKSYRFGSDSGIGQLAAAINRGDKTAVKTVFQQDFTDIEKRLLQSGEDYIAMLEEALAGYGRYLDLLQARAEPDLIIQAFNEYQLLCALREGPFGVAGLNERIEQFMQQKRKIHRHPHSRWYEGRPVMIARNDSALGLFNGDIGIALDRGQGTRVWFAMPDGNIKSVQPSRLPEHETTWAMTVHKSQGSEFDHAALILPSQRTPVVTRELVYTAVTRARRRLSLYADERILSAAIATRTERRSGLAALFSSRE
Chain of Exodeoxyribonuclease V (P07648 whole entry): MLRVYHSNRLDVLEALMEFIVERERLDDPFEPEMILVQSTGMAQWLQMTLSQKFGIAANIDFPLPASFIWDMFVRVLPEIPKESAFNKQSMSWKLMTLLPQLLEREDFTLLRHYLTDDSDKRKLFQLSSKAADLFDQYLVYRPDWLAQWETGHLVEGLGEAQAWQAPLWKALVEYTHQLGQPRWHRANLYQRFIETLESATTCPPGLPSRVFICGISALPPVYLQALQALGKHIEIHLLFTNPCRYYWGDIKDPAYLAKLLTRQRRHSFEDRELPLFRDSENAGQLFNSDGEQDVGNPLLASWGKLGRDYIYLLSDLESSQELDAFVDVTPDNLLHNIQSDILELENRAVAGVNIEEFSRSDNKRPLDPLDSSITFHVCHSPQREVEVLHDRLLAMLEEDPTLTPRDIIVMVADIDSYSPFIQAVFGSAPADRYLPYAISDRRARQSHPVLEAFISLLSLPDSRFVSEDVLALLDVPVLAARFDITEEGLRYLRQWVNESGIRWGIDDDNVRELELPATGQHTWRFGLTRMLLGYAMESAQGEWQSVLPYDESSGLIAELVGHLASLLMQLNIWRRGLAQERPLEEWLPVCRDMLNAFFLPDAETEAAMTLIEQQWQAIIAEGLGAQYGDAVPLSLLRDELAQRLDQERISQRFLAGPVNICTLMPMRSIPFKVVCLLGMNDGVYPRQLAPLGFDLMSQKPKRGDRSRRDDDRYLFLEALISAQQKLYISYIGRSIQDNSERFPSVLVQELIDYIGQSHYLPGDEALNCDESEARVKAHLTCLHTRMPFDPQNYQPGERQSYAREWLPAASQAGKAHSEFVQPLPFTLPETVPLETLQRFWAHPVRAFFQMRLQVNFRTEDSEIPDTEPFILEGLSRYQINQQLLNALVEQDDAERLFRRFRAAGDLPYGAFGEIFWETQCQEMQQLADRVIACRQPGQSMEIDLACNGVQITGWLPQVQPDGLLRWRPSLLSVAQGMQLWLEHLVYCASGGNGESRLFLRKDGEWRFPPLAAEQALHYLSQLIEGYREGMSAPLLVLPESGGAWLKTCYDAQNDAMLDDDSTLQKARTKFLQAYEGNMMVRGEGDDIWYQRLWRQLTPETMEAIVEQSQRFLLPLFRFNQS
Chain of Exodeoxyribonuclease V (P08394 whole entry): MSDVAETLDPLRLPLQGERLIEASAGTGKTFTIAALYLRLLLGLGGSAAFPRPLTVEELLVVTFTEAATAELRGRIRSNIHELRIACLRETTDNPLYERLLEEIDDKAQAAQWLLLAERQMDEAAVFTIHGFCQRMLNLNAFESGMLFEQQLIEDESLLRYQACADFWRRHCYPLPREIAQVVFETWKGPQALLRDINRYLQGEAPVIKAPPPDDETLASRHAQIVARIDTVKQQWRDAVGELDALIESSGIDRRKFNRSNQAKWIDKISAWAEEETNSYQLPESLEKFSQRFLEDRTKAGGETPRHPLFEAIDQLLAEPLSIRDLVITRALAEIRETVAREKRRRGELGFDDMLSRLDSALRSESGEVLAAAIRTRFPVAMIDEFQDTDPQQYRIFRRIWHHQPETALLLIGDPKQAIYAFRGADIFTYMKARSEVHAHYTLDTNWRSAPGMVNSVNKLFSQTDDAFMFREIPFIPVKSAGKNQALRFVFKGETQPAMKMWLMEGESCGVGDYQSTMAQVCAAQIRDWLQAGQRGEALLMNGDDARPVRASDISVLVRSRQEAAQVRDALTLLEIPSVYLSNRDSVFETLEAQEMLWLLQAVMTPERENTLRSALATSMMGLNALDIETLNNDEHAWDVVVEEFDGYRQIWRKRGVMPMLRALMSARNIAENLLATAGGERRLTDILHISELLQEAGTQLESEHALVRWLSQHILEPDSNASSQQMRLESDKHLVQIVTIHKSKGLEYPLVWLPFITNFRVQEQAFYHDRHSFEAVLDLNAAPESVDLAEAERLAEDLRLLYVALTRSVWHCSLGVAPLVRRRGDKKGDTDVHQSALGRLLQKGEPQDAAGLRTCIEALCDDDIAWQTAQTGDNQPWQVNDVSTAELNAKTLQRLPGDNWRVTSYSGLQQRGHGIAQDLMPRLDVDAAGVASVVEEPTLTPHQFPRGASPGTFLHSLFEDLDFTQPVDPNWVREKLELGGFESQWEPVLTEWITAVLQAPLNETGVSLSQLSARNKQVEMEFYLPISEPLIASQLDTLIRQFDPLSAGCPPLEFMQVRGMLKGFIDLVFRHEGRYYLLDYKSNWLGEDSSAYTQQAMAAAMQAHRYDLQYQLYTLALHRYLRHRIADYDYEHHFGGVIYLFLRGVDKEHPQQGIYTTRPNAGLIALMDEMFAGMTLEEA
Chain of Intestinal-type alkaline phosphatase (Homo sapiens, UniProt P09923) (P09923 whole entry): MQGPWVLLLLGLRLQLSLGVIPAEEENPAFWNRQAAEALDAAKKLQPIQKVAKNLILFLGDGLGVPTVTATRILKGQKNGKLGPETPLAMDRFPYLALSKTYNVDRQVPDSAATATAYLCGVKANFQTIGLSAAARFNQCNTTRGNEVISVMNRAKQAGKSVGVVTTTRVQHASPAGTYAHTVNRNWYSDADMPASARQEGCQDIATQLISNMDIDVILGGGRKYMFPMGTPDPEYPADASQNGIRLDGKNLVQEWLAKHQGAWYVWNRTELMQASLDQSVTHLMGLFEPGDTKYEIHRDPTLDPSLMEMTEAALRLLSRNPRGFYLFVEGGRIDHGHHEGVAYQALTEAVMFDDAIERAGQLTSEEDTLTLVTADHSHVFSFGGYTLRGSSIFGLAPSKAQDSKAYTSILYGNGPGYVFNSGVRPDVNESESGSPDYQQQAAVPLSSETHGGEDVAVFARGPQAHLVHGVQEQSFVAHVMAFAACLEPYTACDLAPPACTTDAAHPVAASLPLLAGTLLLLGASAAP
Chain of Nonstructural protein 1 (Q194T2 whole entry): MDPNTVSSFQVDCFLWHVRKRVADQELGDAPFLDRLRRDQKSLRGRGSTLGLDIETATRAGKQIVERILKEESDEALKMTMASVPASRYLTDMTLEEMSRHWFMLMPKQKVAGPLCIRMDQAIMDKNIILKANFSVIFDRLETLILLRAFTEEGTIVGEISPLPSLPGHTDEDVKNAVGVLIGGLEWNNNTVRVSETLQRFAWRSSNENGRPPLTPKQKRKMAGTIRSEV

SMILES: Cc1cc(C)c2cc(C#N)c(NCCCNC(=O)CCC(=O)O)nc2c1
- AC50 (CAAX prenyl protease 1): 29.9 µM (active)
- AC50 (CAAX prenyl protease 2): 36.9 µM (active)

SMILES: Cc1ccc(NC(=O)CN(C)S(=O)(=O)c2ccc3[nH]c(=O)oc3c2)c(C)c1
- EC50 [1]: 57.9 µM (active)
- EC50 [2]: 73.1 µM (active)
- EC50 [3]: 61.3 µM (active)

SMILES: Nc1c(Cl)ncnc1N/N=C/c1ccc2ccccc2n1
- IC50 [4]: > 119 µM (inactive)
- AC50 (INS1): 0.825 µM (active)
- IC50 (Exodeoxyribonuclease V): > 119 µM (inactive)
- IC50 (Nonstructural protein 1): 8.42 µM (active)

SMILES: COc1ccc(-c2c(-c3ccc(OCCN4CCOCC4)cc3O)n[nH]c2C)cc1
- IC50 (Cannabinoid receptor 2 [5]): 26.8 µM (inactive)
- IC50 [6]: > 32 µM (inactive)
- IC50 (Cannabinoid receptor 1 [7]): 3.78 µM (active)
- EC50 (Cannabinoid receptor 2 [8]): > 32 µM (inactive)
- EC50 (Cannabinoid receptor 1 [9]): > 32 µM (inactive)
- IC50 [10]: > 32 µM (inactive)
- EC50 [11]: > 32 µM (inactive)
